For orientation: melting point means the temperature, or range, at which the solid turns liquid. In turn, `Cc1nc(C(=O)O)ccc1C#N` returned a melting point of 150 to 152 °C.

Molecule `CC(C)COC(=O)Nc1cccc(N)c1` came in with a melting point of 92 to 94 °C.

Take `Cn1c(=O)cc(C(=O)O)c2ccccc21`: the melting point lay in the range of 250 to 252 °C.

In the case of `Cc1nc(N)nc(C2CC2)n1`, the melting point is 114 to 116 °C.

For the molecule `CS(=O)(=O)c1ccc(Cl)c([N+](=O)[O-])c1`, the melting point was in the range of 121 to 123 °C.

The molecule `COc1ccc(Cn2ncc(C)c2N)cc1OC` had a melting point of 98 to 100 °C.

With `O=C(O)CCCCCc1ccc(O)cc1`, the melting point lay within 104 to 106 °C.

`Nc1nc(-c2ccc(F)cc2)ns1`: the melting point lay within 154 to 156 °C.

With `O=C(O)CNC(=O)C=Cc1cccnc1`, the melting point lay in the range of 264 to 266 °C.

In turn, `Clc1ccc(CN2CCNCC2)cn1` came in with a melting point of 89 to 91 °C.

For the molecule `Nc1cnn(-c2ccc(C(F)(F)F)cc2)c1`, the melting point was in the range of 159 to 161 °C.

`OC1CC(c2ccc(Br)cc2)C1` (stereo not given) registered a melting point of 59 to 61 °C.

With `O=C(O)c1ccc2nc(S)oc2c1`, the melting point was 295 to 297 °C.

In the case of `CN1C(=O)CCC(C(=O)O)C1c1cccc(Cl)c1` (stereo not given), the melting point was 182 to 184 °C.

For the molecule `CCCC(C)(NC(=O)OCc1ccccc1)C(=O)O` (stereo not given), the melting point was in the range of 103 to 105 °C.

In turn, `CSc1ccc(C#N)cc1N` had a melting point of 42 to 44 °C.

Molecule `Cc1ccccc1-n1c(C)nnc1S` gave a melting point of 201 to 203 °C.

`O=Cc1ccc(-c2c(F)cccc2F)o1` returned a melting point of 51 to 53 °C.

`Cn1cccc1C=CC(=O)O` came in with a melting point of 153 to 155 °C.

`CC1(C)NC(=O)N(CCOc2ccc(N)cc2)C1=O` returned a melting point of 147 to 149 °C.

As for `O=[N+]([O-])c1cc(F)cc(S(=O)(=O)Cl)c1`, the melting point fell in the range of 40 to 42 °C.

The molecule `COc1ncnc(N(C)C)c1N` showed a melting point of 69 to 71 °C.

As for `CC(C)(C)Sc1ccc(C#N)nc1`, the melting point fell in the range of 60 to 62 °C.

Regarding `C/C(=N\OCC(=O)O)c1ccc2c(c1)OCO2`, the melting point was in the range of 136 to 138 °C.

As for `O=C(c1ccc(Cl)cc1)c1ccccn1`, the melting point was in the range of 63 to 65 °C.

Take `CC1(C)C(O)CC1O` (stereo not given): the melting point was 104 to 106 °C.

Consider `OCc1nnnn1-c1ccccc1`, for which the melting point lay within 100 to 102 °C.

`O=C(CN1CCCC1)Nc1c(I)cc(I)cc1I` showed a melting point of 184 to 186 °C.

As to `Nc1cccc([N+](=O)[O-])c1C(=O)O`, the melting point is 143 to 145 °C.

As to `CCc1ccc(C(=O)c2ccc(N)cc2)o1`, the melting point fell in the range of 124 to 126 °C.

As for `O=C(O)CNC(=O)C1CCC1`, the melting point is 107 to 109 °C.

As for `CC(=O)NCc1ccc(-c2csc(N)n2)s1`, the melting point was 221 to 223 °C.

`O=C(O)c1csc(-c2cccc3ccccc23)n1` came in with a melting point of 144 to 146 °C.

In turn, `Sc1nnc(-c2cc3ccccc3o2)o1` yielded a melting point of 249 to 251 °C.

Turning to `O=C(O)CCc1nncn1-c1ccccc1`, the melting point is 202 to 204 °C.

`Nc1ccnc(OCC(F)(F)F)c1` returned a melting point of 39 to 41 °C.

Regarding `Nc1cc(NC(=O)c2ccccc2I)ccc1F`, the melting point fell in the range of 202 to 204 °C.

As for `O=C(CCl)NC(=O)Nc1ccc2c(c1)OCCCO2`, the melting point lay within 110 to 112 °C.

Molecule `Cc1nnc(S)n1CC(N)=O` displayed a melting point of 232 to 234 °C.

Regarding `COc1ccc(F)cc1C(F)(F)C(=O)O`, the melting point was 125 to 127 °C.

Consider `O=C(CO)c1ccc(F)cc1F`, for which the melting point was 95 to 97 °C.

`O=C(CCl)Nc1ccccc1Br`: the melting point was in the range of 78 to 80 °C.

`CCCc1[nH]nc(C(=O)O)c1[N+](=O)[O-]` showed a melting point of 158 to 160 °C.

The molecule `Nc1ccc(NS(=O)(=O)c2ccc3c(c2)OCCO3)cc1` yielded a melting point of 176 to 178 °C.

As to `CCC1(O)CCC(N)CC1` (stereo not given), the melting point lay in the range of 79 to 81 °C.

`O=C(NC1CCCC1)c1ccc(Cl)nn1` showed a melting point of 139 to 141 °C.

In turn, `Nc1nc2cc(S(=O)(=O)N3CCCC3)ccc2o1` registered a melting point of 240 to 242 °C.

In turn, `COC(=O)CCS(=O)(=O)c1ccc(Br)cc1` showed a melting point of 75 to 77 °C.

For the molecule `N#Cc1ccc2ocnc2c1`, the melting point lay within 87 to 89 °C.

In the case of `Nc1cccc(C(=O)N2CCSCC2)c1`, the melting point fell in the range of 114 to 116 °C.

As to `O=C(O)c1cc(S(=O)(=O)Cl)cc(F)c1F`, the melting point is 111 to 113 °C.

Consider `CC(C)C(Br)C(=O)Nc1ccc2c(c1)CCC2` (stereo not given), for which the melting point lay within 124 to 126 °C.

The molecule `COc1ccccc1-c1ncc(C(=O)O)[nH]1` displayed a melting point of 219 to 221 °C.

The molecule `O=C(O)C1CC1c1ccc(Cl)cc1Cl` (stereo not given) showed a melting point of 157 to 159 °C.

In turn, `Nc1nc(-c2ccc3c(c2)OCO3)cs1` had a melting point of 176 to 180 °C.

In turn, `CCOc1cc(CC#N)cc(Cl)c1OC(F)F` came in with a melting point of 79 to 81 °C.

In turn, `COC(=O)c1cc(S(=O)(=O)N2CCCC2)ccc1O` displayed a melting point of 160 to 162 °C.

`O=C(NC(C(=O)O)c1ccccc1)c1ccccc1` (stereo not given) yielded a melting point of 198 to 200 °C.

`Nc1ccc(S(=O)(=O)C2CCCC2)cc1`: the melting point was in the range of 113 to 115 °C.

On to `Cn1ccnc1SCC(=O)Nc1ccc(C(=O)O)cc1`, for which the melting point lay within 171 to 173 °C.

Molecule `Nc1ccc(C(=O)NCCO)cc1` had a melting point of 115 to 117 °C.

As for `CCCC1NC(=O)NC1=O` (stereo not given), the melting point was 132 to 136 °C.

In turn, `O=C(Nc1cccc(O)c1)C1CC1` had a melting point of 184 to 186 °C.

As for `CCS(=O)(=O)Nc1ccccc1F`, the melting point was 68 to 70 °C.

Take `COC(=O)c1ccc(N)cc1Cl`: the melting point lay within 107 to 109 °C.

`Cc1ccc(NS(=O)(=O)c2ccc(Cl)c([N+](=O)[O-])c2)c(C)c1` showed a melting point of 99 to 101 °C.

On to `O=C(O)C1CSCN1C(=O)C1CCCC1` (stereo not given), for which the melting point fell in the range of 114 to 116 °C.

On to `CC(C)C(Br)C(=O)NC1CCCCC1` (stereo not given), for which the melting point was in the range of 116 to 118 °C.

The molecule `O=C(O)c1cc2ccccc2c(OCC(F)(F)F)n1` yielded a melting point of 206 to 208 °C.

`O=C(O)c1cc(N2CCOCC2)ccn1`: the melting point was 257 to 259 °C.

For the molecule `CN(C)C(=O)c1ccc(O)cc1`, the melting point is 156 to 158 °C.

As for `Nc1cccc(NC(=O)CO)c1`, the melting point fell in the range of 150 to 152 °C.

In the case of `O=C(O)c1nn(-c2cccc(Br)c2)c2c1CCCC2`, the melting point fell in the range of 193 to 195 °C.

Molecule `Nc1nc(-c2cccnc2)cs1` returned a melting point of 189 to 193 °C.

Turning to `Cn1cc(/C=C/C(=O)O)c(=O)n(C)c1=O`, the melting point is 272 to 274 °C.

Consider `ClC(c1ccccc1)c1nc(-c2ccccc2)no1` (stereo not given), for which the melting point was 74 to 76 °C.

Take `COC(=O)CCNc1ncccc1[N+](=O)[O-]`: the melting point was in the range of 65 to 67 °C.

`CN(C)C(=O)c1cc(F)c(NN)c(F)c1` gave a melting point of 74 to 76 °C.

With `Cc1cc(OS(C)(=O)=O)nc2c1cnn2C(C)C`, the melting point fell in the range of 78 to 80 °C.

As for `Nc1ccc(NC(=O)c2ccoc2)cc1C(F)(F)F`, the melting point was in the range of 121 to 123 °C.

`Cn1c(SCC(=O)O)nc2ccccc21` registered a melting point of 155 to 159 °C.

The molecule `CC(=O)N1CCN(Cc2ccc(C(=O)O)cc2)CC1` had a melting point of 229 to 231 °C.

The molecule `O=C(O)c1cnoc1-c1ccco1` displayed a melting point of 195 to 197 °C.

In turn, `O=C(O)C1CNCc2ccccc21` (stereo not given) came in with a melting point of 233 to 235 °C.

`O=C1Nc2cc(Br)ccc2C1=O` yielded a melting point of 259 to 261 °C.

Molecule `COC(=O)c1ccc2c(=O)[nH]c(C)nc2c1` had a melting point of 274 to 276 °C.

The molecule `O=C(O)C1CCCN1C(=O)c1ccc([N+](=O)[O-])s1` (stereo not given) displayed a melting point of 161 to 163 °C.

Turning to `CC(C)(C)OC(=O)NC1(C(=O)O)CCOC(C)(C)C1` (stereo not given), the melting point was 176 to 178 °C.

As for `Cc1ccc(-c2nn(-c3ccccc3)cc2C=O)cc1C`, the melting point fell in the range of 102 to 104 °C.

Molecule `O=c1[nH]nc(-c2ccccc2)cc1C(F)(F)F` gave a melting point of 184 to 186 °C.

Take `COC(=O)c1cc([N+](=O)[O-])c(C)cc1C`: the melting point lay in the range of 57 to 59 °C.

`O=C(O)C=Cc1cc(Br)ccc1OCc1ccccc1Cl`: the melting point lay in the range of 192 to 194 °C.

Molecule `CC(C)c1ccccc1OCCC(=O)O` showed a melting point of 84 to 86 °C.

As for `N#CCC(=O)c1cccc(Br)c1`, the melting point lay in the range of 94 to 96 °C.

As to `Nc1ccc(-c2nc3ccccc3s2)cc1N`, the melting point was 165 to 169 °C.

Turning to `COc1ccc(Sc2ccc(N)cc2Cl)cc1`, the melting point fell in the range of 104 to 106 °C.

In turn, `CNc1ccccc1C#N` registered a melting point of 66 to 68 °C.

Molecule `CC(C)c1ccc(C(=O)CC#N)cc1` showed a melting point of 91 to 93 °C.

The molecule `Brc1ccc2[nH]c3c(c2c1)CNCC3` returned a melting point of 216 to 218 °C.

Regarding `Fc1ccc2nc(-c3ccccn3)[nH]c2c1`, the melting point was 159 to 161 °C.

`Cc1ccc(S(N)(=O)=O)cc1C(N)=O` displayed a melting point of 192 to 194 °C.

In turn, `CC(C)CNS(=O)(=O)c1ccc(C(=O)O)cc1` showed a melting point of 238 to 240 °C.

Regarding `CC(O)c1cccc(O)c1` (stereo not given), the melting point is 112 to 114 °C.

In turn, `Nc1cc(-c2ccc(F)cc2)no1` returned a melting point of 100 to 102 °C.

Regarding `O=C(O)c1cccnc1NC1CCCC1`, the melting point lay within 222 to 224 °C.

As to `CCOc1ccc(NS(=O)(=O)c2ccc(N)cc2)cc1`, the melting point is 145 to 147 °C.

On to `N#CCc1cccnc1Cl`, for which the melting point was in the range of 80 to 82 °C.

In the case of `O=C(O)Cc1ccc(NC(=O)c2cccc(Br)c2)cc1`, the melting point is 246 to 248 °C.

Molecule `C=CCc1cc([N+](=O)[O-])ccc1O` yielded a melting point of 68 to 70 °C.

The molecule `O=C1c2ccccc2C(=O)N1Cc1ccnc2ccnn12` showed a melting point of 274 to 276 °C.

`Cc1c(C(=O)O)cc(Br)cc1S(=O)(=O)Cl` displayed a melting point of 139 to 141 °C.

The molecule `COc1ccc(C=O)c2cc(C(=O)O)oc12` registered a melting point of 264 to 266 °C.

In turn, `COc1ccc(-c2csc(C)n2)cc1OC` showed a melting point of 74 to 76 °C.

For the molecule `NNC(=O)c1ccc(S(=O)(=O)N2CCN(Cc3ccccc3)CC2)cc1`, the melting point fell in the range of 135 to 137 °C.

For `CC(Cl)C(=O)NC1CC1` (stereo not given), the melting point fell in the range of 67 to 71 °C.

`CCn1c(C(C)=O)nc2ccccc21` registered a melting point of 76 to 78 °C.

In turn, `O=C(O)/C(=C\c1ccccc1)c1ccc(Cl)cc1` showed a melting point of 179 to 183 °C.

`O=C(O)CNc1nccs1` registered a melting point of 261 to 263 °C.

The molecule `NC(=O)N1CC=C(c2ccc(O)cc2)CC1` gave a melting point of 244 to 246 °C.

On to `O=C(O)CC1(C(=O)O)CCN(C(=O)OCc2ccccc2)C1` (stereo not given), for which the melting point is 169 to 171 °C.

The record behind these values is a melting point compilation (Tetko et al.).
